These results are taken from patent US20250205344A1, “2,4-DIOXOTETRAHYDROPYRIMIDINYL DERATIVES AS DEGRONS IN PROTACS” (GLAXOSMITHKLINE INTELLECTUAL PROPERTY DEVELOPMENT LIMITED, priority 2022, published 2025).

Holding throughout (format): cell-based
The target of one assay is T1, RIPK2 (Homo sapiens, UniProt O43353).
T1 construct: the RIPK2 gene was modified, using CRISPR/Cas9 editing, so the expressed RIPK2 protein included an 11 amino acid HiBiT tag; endogenous in cells; host or cells: clonal HEK 293-derived line, RIPK2 gene edited by CRISPR/Cas9 (heterozygous)
T1 sequence (O43353 whole entry): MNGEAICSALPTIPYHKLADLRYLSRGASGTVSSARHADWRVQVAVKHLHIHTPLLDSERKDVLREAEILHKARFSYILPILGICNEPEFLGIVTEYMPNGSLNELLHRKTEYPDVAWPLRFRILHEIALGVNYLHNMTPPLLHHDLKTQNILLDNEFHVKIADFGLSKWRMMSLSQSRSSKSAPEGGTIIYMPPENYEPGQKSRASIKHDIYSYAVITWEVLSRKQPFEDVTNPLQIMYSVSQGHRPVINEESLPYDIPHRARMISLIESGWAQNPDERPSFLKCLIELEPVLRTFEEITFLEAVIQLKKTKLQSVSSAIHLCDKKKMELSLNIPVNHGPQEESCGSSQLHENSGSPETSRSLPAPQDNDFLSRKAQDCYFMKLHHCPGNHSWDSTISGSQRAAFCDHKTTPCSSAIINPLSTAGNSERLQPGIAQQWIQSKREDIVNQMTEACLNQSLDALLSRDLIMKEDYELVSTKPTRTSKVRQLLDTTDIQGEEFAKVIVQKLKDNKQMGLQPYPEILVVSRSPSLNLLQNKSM
Nature of the assay: RIPK2 Degradation Assay (Nano-Glo HiBiT). The note with it: HiBiT-tagged RIPK2 in HEK 293 cells, 18 h. The source says:
Degradation of RIPK2 protein in human embryonic kidney (HEK 293) cells treated with PROTACs was quantified using the Nano-Glo® HiBiT Lytic Detection System (Promega) in 384 well assay plate format. A clonal HEK 293 derived cell line was first established in which the RIPK2 gene was modified, using CRISPR/Cas9 editing, so the expressed RIPK2 protein included an 11 amino acid HiBiT tag at it's amino-terminus. The cell lines were heterozygotic for the HiBIT modification. Cells were cryopreserved in aliquots in 90% foetal bovine serum (FBS), 10% DMSO and stored at −150° C. 10 mM DMSO stock solutions of PROTACs were prepared and diluted across an 11 concentration, 3 fold increment range, and 25 nL dispensed into a white opaque bottomed 384 well assay plate (Thermofisher) using an acoustic ECHO dispenser (Labcyte). For the assay, a cryopreserved vials of cells was rapidly thawed and suspended in 30 mL of assay medium (FluoroBrite™ DMEM supplemented with 10% heat inactivated FBS, penicillin 50 U/mL and streptomycin 50 ug/mL (Thermofisher)). The cell suspension was centrifuged at 400 g for 5 min and the pellet resuspended in assay medium. 25 μL of cell suspension containing 10,000 cells was dispensed into each well of the assay plate containing the test compounds, which was then incubated for 18 h at 37° C./5% CO2. Control wells were included on each assay plate, with assay medium without cells being the no RIPK2 remaining 100% effect control, and cells treated with DMSO vehicle only, without PROTAC, the 0% effect control. 25 μL of Nano-Glo® HiBiT lysis buffer supplemented with LgBiT protein and Nano-Glo® substrate (Promega) was added to each well and the plate shaken at 500 rpm for 10 min at room temperature. The intensity of luminescence was measured using a PHERAstar microplate reader (BMG Labtech) and the % RIPK2 protein remaining in each well calculated by normalising the raw luminescence value to the above control wells. Parameters corresponding to the potency and efficacy estimates of the PROTACs were obtained from these normalised luminescence values using software (IDBS ActivityBase). These included the DC50 and the Dmax estimates. Two versions of the DC50, called relative DC50 and absolute DC50, were typically generated. These are the inflection point of a fitted 4 parameter sigmoidal response curve and the interpolated concentration of PROTAC corresponding to 50% of the protein being degraded, respectively. The Dmax parameter was the maximum experimentally observed degradation and the asymptote max parameter the fitted response curve asymptote maximum.

In assay [1] the target is T2, Androgen Receptor dual T878A/L702H mutant protein (Homo sapiens, UniProt P10275, L702H/T878A).
T2 construct: Androgen Receptor dual T878A/L702H mutant protein in human MDA PCa 2b (ATCC, #CRL-2422) cells; host or cells: MDA PCa 2b
T2 sequence (P10275 1-920 L702H/T878A): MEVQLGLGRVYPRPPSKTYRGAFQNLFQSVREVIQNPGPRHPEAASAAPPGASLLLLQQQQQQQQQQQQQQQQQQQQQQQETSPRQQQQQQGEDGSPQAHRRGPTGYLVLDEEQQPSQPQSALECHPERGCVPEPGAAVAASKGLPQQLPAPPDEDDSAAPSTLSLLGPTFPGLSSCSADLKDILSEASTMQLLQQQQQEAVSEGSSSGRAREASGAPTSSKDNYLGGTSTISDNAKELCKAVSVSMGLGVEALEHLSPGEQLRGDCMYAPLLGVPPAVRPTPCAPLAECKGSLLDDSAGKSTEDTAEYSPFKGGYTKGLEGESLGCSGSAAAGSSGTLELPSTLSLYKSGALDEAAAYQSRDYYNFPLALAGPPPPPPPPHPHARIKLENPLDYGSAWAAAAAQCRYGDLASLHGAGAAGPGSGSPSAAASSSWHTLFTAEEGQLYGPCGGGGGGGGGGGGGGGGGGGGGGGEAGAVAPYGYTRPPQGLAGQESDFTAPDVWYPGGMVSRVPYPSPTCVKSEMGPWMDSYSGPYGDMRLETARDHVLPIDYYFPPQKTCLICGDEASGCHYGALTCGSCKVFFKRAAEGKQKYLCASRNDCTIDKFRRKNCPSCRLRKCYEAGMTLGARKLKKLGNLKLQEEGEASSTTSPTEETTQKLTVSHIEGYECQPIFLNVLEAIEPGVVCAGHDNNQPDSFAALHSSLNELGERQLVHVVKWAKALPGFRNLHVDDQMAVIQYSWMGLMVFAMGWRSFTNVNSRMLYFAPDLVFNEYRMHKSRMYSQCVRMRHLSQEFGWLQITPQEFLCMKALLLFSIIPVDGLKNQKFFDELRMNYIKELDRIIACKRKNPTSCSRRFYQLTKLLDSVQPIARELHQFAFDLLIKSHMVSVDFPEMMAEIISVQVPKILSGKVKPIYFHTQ
The assay is described as follows: Dual Mutant (T878A/L702H) Androgen Receptor Degradation Assay (HTRF). The note with it: MDA-PCa-2b, 18 h, human MDA PCa 2b cells, read-out: mean asymptote max. As to the method:
Degradation of Androgen Receptor dual T878A/L702H mutant protein in human MDA PCa 2b (ATCC, #CRL-2422) cells treated with PROTACs was quantified using the HTRF Human Androgen Receptor Detection Kit (PerkinElmer, #64ANDRPEH) in 384 well assay plate format. 10 mM DMSO(Sigma-Aldrich, #472301) stock solutions of PROTACs were prepared and diluted across an 11 concentration, 3-fold increment range, and 25 nL dispensed into a white opaque bottomed 384 well assay plate (Thermofisher, #164610) using an acoustic ECHO dispenser (Labcyte). Cells were cultured in growth medium (BRFF-HPC-1 (Athena ES, #0403) supplemented with 20% FBS (Gibco, #10099-141), penicillin 50 U/mL and streptomycin 50 ug/mL (Gibco, #15140-122)) in collagen I or poly-D-lysine coated T175 flasks (Corning, #356487 or #356539, respectively). For the assay, cells were harvested from the flask, centrifuged at 200 g for 5 min and then resuspended in the growth medium. 25 μl of cell suspension containing 10,000 cells was dispensed into each well of the assay plate containing the test compounds, which was then incubated for 18 h at 37° C./5% CO2. Control wells were included on each assay plate, with assay medium without cells being the no AR remaining 100% effect control, and cells treated with DMSO vehicle only, without PROTAC, the 0% effect control. After 18 h incubation 8 μl of supplemented lysis buffer from HTRF kit was added to each well and the plate shaken at 500 rpm for 1 h at room temperature. 8 μl of antibody mix in Detection buffer from HTRF kit was added to each well and the plate was incubated for 2 h in dark at room temperature. The fluorescence was measured at both 620 nm and 665 nm using an excitation wavelength of 337 nm with a PHERAstar microplate reader (BMG Labtech) and the % AR protein remaining in each well was calculated by normalising the HTRF ratio (665 nm signal/620 nm signal) value to the control wells mentioned above. Parameters corresponding to the potency and efficacy estimates of the PROTACs were obtained from these normalised values using curve fitting software (IDBS ActivityBase). These included the DC50 and the Dmax estimates. Two versions of the DC50, called relative DC50 and absolute DC50, were typically generated. These are the inflection point of a fitted 4 parameter sigmoidal response curve and the interpolated concentration of PROTAC corresponding to 50% of the protein being degraded, respectively. The Dmax parameter was the maximum experimentally observed degradation and the asymptote max parameter the fitted response curve asymptote maximum.

In another assay the target is T3, Androgen Receptor (Homo sapiens, UniProt P10275, T878A).
T3 construct: the AR gene was modified, using CRISPR/Cas9 editing, so the expressed AR protein included an 11 amino acid HiBiT tag; endogenous in cells; host or cells: clonal LnCaP-derived line, AR gene edited by CRISPR/Cas9
T3 sequence (P10275 whole entry T878A): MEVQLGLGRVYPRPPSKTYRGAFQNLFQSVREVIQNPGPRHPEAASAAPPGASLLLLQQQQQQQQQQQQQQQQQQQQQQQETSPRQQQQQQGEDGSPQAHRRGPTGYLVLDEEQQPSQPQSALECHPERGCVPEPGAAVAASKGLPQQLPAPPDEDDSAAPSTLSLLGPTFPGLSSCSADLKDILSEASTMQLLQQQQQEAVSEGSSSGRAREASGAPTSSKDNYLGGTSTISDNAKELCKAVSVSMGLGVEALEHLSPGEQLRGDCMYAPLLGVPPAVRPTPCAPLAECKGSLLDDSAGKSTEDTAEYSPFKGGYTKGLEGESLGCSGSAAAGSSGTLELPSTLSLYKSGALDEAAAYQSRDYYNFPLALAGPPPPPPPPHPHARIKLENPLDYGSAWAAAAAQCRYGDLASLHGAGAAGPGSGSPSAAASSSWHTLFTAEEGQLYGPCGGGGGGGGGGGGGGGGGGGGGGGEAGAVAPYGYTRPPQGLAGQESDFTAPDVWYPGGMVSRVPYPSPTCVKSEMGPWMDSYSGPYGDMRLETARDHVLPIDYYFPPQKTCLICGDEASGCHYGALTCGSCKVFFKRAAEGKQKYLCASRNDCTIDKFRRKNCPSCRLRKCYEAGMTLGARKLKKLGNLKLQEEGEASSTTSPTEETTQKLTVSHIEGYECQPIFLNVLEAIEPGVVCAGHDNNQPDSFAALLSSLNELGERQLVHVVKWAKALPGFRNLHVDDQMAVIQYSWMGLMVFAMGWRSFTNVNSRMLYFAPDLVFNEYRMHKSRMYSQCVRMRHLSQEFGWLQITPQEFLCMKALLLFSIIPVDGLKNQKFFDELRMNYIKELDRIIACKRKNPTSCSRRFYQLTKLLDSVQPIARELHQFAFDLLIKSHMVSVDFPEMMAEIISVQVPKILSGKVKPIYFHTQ
T3 sequence (Q96SW2 whole entry partner): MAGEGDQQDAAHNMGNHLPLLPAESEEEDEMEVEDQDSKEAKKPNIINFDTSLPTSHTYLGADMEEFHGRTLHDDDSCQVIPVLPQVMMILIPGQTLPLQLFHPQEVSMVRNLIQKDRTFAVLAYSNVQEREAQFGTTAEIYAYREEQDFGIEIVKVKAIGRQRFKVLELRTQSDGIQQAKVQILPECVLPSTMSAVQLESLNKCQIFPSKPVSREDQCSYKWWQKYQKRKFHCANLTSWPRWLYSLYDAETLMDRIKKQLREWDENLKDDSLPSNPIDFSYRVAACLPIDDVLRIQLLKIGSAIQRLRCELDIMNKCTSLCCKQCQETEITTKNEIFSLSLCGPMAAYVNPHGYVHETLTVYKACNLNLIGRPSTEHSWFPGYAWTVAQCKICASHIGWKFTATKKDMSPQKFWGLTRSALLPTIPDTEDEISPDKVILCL
T3 sequence (Q16531 whole entry partner): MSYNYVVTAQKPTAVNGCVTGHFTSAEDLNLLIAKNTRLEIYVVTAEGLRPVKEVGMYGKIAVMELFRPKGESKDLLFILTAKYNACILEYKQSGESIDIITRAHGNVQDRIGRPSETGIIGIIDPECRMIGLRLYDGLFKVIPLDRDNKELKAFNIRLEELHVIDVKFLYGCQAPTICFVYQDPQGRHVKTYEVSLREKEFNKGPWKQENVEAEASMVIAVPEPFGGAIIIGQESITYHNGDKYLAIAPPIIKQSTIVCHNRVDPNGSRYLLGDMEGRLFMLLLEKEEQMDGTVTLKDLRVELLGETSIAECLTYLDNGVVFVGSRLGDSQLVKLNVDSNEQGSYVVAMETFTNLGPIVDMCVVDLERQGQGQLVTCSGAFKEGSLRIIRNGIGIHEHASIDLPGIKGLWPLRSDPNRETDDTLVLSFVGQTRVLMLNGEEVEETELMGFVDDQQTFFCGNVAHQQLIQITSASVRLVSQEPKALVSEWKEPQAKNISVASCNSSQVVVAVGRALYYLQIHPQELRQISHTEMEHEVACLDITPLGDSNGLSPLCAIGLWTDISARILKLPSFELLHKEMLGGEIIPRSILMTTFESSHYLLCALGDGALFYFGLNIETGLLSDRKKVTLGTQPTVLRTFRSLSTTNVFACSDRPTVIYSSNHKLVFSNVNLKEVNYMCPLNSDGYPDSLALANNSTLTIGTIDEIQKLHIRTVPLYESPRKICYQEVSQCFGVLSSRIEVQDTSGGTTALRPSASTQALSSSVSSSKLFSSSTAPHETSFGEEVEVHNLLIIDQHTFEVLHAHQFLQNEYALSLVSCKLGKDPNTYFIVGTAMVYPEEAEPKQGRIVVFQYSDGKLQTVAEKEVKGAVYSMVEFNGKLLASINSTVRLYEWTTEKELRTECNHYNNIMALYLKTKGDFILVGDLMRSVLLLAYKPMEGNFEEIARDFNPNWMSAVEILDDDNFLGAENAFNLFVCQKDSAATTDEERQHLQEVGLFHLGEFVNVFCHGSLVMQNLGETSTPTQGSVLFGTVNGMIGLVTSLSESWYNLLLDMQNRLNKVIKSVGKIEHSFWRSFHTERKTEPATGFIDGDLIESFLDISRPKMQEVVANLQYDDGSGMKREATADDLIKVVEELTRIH
Nature of the assay: Androgen Receptor Degradation Assay (Nano-Glo HiBiT). The note with it: LNCaP, 18 h, HiBiT-tagged AR in human LnCaP cells, read-out: mean asymptote max. The method, boiled down:
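LnCaP cells with CRISPR-knocked-in N-terminal HiBiT-tagged AR (10,000/well) treated 18 h at 37 °C with PROTACs over 11 threefold concentrations; lytic HiBiT luminescence normalised to DMSO (0%) and cell-free (100%) controls. Relative DC50 = 4-parameter fit inflection; absolute DC50 = 50% degradation interpolation; Dmax = maximum observed degradation.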

Structures can show the parent of a compound that is named as a salt.

For `CC(C)(C)S(=O)(=O)c1cc2c(Nc3ccc4scnc4c3)ccnc2cc1OCCCN1CCC(c2cnc(C(=O)N3CCC(n4ccc5c(N6CCC(=O)NC6=O)cccc54)CC3)cn2)CC1.O=CO` [Example R2, 1-(1-(1-(5-(1-(3-((4-(Benzo[d]thiazol-5-ylamino)-6-(tert-butylsulfonyl)quinolin-7-yl)oxy)propyl)piperidin-4-yl)pyrazine-2-carbonyl)piperidin-4-yl)-1H-indol-4-yl)dihydropyrimidine-2,4(1H,3H)-dione formate], on RIPK2, the “Mean asymptote max (%)” value came out at 88% and the “mean relative pDC50” value is 8.5.

As for `CC(C)n1ccc2c(N3CCC(=O)NC3=O)cc(C(=O)NCCOCCOCCOc3cc4nccc(Nc5ccc6scnc6c5)c4cc3S(=O)(=O)C(C)(C)C)cc21` [Example R3, N-(2-(2-(2-((4-(Benzo[d]thiazol-5-ylamino)-6-(tert-butylsulfonyl)quinolin-7-yl)oxy)ethoxy)ethoxy)ethyl)-4-(2,4-dioxotetrahydropyrimidin-1(2H)-yl)-1-isopropyl-1H-indole-6-carboxamide], on RIPK2, the “Mean asymptote max (%)” value was determined as 92% and the “mean relative pDC50” value was 8.3.

As to `CC1(C)[C@H](NC(=O)c2ccc(N3CCC(CN4CCC(n5ccc6c(N7CCC(=O)NC7=O)ncnc65)CC4)CC3)nn2)C(C)(C)[C@H]1Oc1ccc(C#N)c(Cl)c1` [AR247, N-((1r,3r)-3-(3-Chloro-4-cyanophenoxy)-2,2,4,4-tetramethylcyclobutyl)-6-(4-((4-(4-(2,4-dioxotetrahydropyrimidin-1(2H)-yl)-7H-pyrrolo[2,3-d]pyrimidin-7-yl)piperidin-1-yl)methyl)piperidin-1-yl)pyridazine-3-carboxamide], the Dmax was not below 55% in assay [1] and not below 50% at Androgen Receptor.

For `CC1(C)[C@H](NC(=O)c2ccc(N3CCC(CN4CCC(n5ncc6c(N7CCC(=O)NC7=O)cccc65)CC4)CC3)nc2)C(C)(C)[C@H]1Oc1ccc(C#N)c(Cl)c1` [AR41, N-((1r,3r)-3-(3-Chloro-4-cyanophenoxy)-2,2,4,4-tetramethylcyclobutyl)-6-(4-((4-(4-(2,4-dioxotetrahydropyrimidin-1(2H)-yl)-1H-indazol-1-yl)piperidin-1-yl)methyl)piperidin-1-yl)nicotinamide hydrochloride], the Dmax in assay [1] is not below 55%; on Androgen Receptor it was not below 50%.

`CC1(C)[C@H](NC(=O)c2cnc(N3CCC(CN4CCC(n5ccc6c(N7CCC(=O)NC7=O)cncc65)CC4)CC3)cn2)C(C)(C)[C@H]1Oc1ccc(C#N)c(Cl)c1` [AR14, N-((1r,3r)-3-(3-Chloro-4-cyanophenoxy)-2,2,4,4-tetramethylcyclobutyl)-5-(4-((4-(4-(2,4-dioxotetrahydropyrimidin-1(2H)-yl)-1H-pyrrolo[2,3-c]pyridin-1-yl)piperidin-1-yl)methyl)piperidin-1-yl)pyrazine-2-carboxamide]: the figures for the Dmax (in assay [1]; at Androgen Receptor) were not below 55% and not below 50%, respectively.

For `CC1(C)[C@H](NC(=O)c2cnc(N3CCC(CN4CCC(n5ncc6c(N7CCC(=O)NC7=O)cccc65)CC4)CC3)cn2)C(C)(C)[C@H]1Oc1ccc(C#N)c(Cl)c1` [EAR37, N-((1r,3r)-3-(3-Chloro-4-cyanophenoxy)-2,2,4,4-tetramethylcyclobutyl)-5-(4-((4-(4-(2,4-dioxotetrahydropyrimidin-1(2H)-yl)-1H-indazol-1-yl)piperidin-1-yl)methyl)piperidin-1-yl)pyrazine-2-carboxamide hydrochloride], the results for the Dmax (in assay [1]; at Androgen Receptor) were not below 55% and not below 50%, respectively.

`CC1(C)[C@H](NC(=O)c2cnc(N3CCC(CN4CCC(n5ccc6c(N7CCC(=O)NC7=O)cncc65)CC4)CC3)nc2)C(C)(C)[C@H]1Oc1ccc(C#N)c(Cl)c1` [EAR18, N-((1r,3r)-3-(3-Chloro-4-cyanophenoxy)-2,2,4,4-tetramethylcyclobutyl)-2-(4-((4-(4-(2,4-dioxotetrahydropyrimidin-1(2H)-yl)-1H-pyrrolo[2,3-c]pyridin-1-yl)piperidin-1-yl)methyl)piperidin-1-yl)pyrimidine-5-carboxamide]: the results for the Dmax (in assay [1]; at Androgen Receptor) were not below 55% and not below 50%, respectively.
